Laboratory results taken from PubChem BioAssay (NCI).
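Assay format: 96-well plates, 48-hour exposure. GI50 marks 50% less growth. Definition used: TGI = concentration required for complete inhibition of growth.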

Key:
Assay in all cases: NCI tumour cell line growth inhibition, 48 h
[1] = test system: SNB-75 CNS
[2] = test system: SW-620 colon
[3] = test system: SF-295 CNS
[4] = test system: RPMI-8226 leukemia
[5] = test system: M14 melanoma
[6] = test system: HOP-62 NSCLC
[7] = test system: SK-MEL-5 melanoma
[8] = test system: HCT-116 colon
[9] = test system: COLO 205 colon
[10] = test system: HCT-15 colon
[11] = test system: T-47D breast
[12] = test system: CAKI-1 renal
[13] = test system: NCI-H522 lung
[14] = test system: IGROV1 ovarian
[15] = test system: SR leukemia
[16] = test system: OVCAR-4 ovarian
[17] = test system: MDA-MB-231 breast
[18] = test system: OVCAR-3 ovarian
[19] = test system: A549 NSCLC
[20] = test system: SF-268 CNS
[21] = test system: KM12 colon
[22] = test system: MALME-3M melanoma
[23] = test system: SN12C renal
[24] = test system: CCRF-CEM leukemia
[25] = test system: NCI-H460 lung
[26] = test system: NCI/ADR-RES ovarian
[27] = test system: BT-549 breast
[28] = test system: ACHN renal
[29] = test system: SK-OV-3 ovarian
[30] = test system: NCI-H226 lung
[31] = test system: HS 578T breast
[32] = test system: PC-3 prostate
[33] = test system: RXF 393 renal
[34] = test system: OVCAR-8 ovarian
[35] = test system: SNB-19 CNS
[36] = test system: HCC-2998 colon
[37] = test system: SF-539 CNS
[38] = test system: K-562 leukemia
[39] = test system: 786-0 renal
[40] = test system: UO-31 renal
[41] = test system: TK-10 renal
[42] = test system: UACC-62 melanoma
[43] = test system: OVCAR-5 ovarian
[44] = test system: UACC-257 melanoma
[45] = test system: LOX IMVI melanoma
[46] = test system: SK-MEL-2 melanoma
[47] = test system: U251 CNS
[48] = test system: HOP-92 NSCLC
[49] = test system: MOLT-4 leukemia
[50] = test system: HT29 colon
[51] = test system: NCI-H23 lung
[52] = test system: A498 renal
[53] = test system: HL-60(TB) leukemia
[54] = test system: DU-145 prostate
[55] = test system: MDA-MB-435
[56] = test system: MCF7 breast
[57] = test system: SK-MEL-28 melanoma

Cn1cc(C2=C(c3cn(CCCSC(=N)N)c4ccccc34)C(=O)NC2=O)c2ccccc21
GI50 [1]: 0.674 µM | TGI [1]: 4.33 µM | GI50 [2]: 1.66 µM | TGI [2]: 5.51 µM | GI50 [3]: 5.19 µM | TGI [3]: 14.1 µM | GI50 [4]: 4.61 µM | TGI [4]: 10.3 µM | GI50 [5]: 3.56 µM | TGI [5]: 7.77 µM | GI50 [6]: 2.36 µM | TGI [6]: 7.39 µM | GI50 [7]: 1.56 µM | TGI [7]: 4.27 µM | GI50 [8]: 1.1 µM | TGI [8]: 4.62 µM | GI50 [9]: 0.668 µM | TGI [9]: 1.92 µM | GI50 [10]: 4.71 µM | TGI [10]: 11.1 µM | GI50 [11]: 1.11 µM | TGI [11]: 5.12 µM | GI50 [12]: 7.68 µM | TGI [12]: 23.4 µM | GI50 [13]: 1.51 µM | TGI [13]: 5.27 µM | GI50 [14]: 3.03 µM | TGI [14]: 12.3 µM | GI50 [15]: 0.585 µM | TGI [15]: 1.69 µM | GI50 [16]: 3.23 µM | TGI [16]: 9.88 µM | GI50 [17]: 2.11 µM | TGI [17]: 9.52 µM | GI50 [18]: 2.4 µM | TGI [18]: 9.28 µM | GI50 [19]: 4.73 µM | TGI [19]: 12.9 µM | GI50 [20]: 1.76 µM | TGI [20]: 7.52 µM | GI50 [21]: 2.07 µM | TGI [21]: 5.97 µM | GI50 [22]: 3.84 µM | TGI [22]: 8.34 µM | GI50 [23]: 1.83 µM | TGI [23]: 5.56 µM | GI50 [24]: 0.971 µM | TGI [24]: 3.93 µM | GI50 [25]: 3.65 µM | TGI [25]: 7.54 µM | GI50 [26]: > 25 µM | TGI [26]: > 25 µM | GI50 [27]: 4.83 µM | TGI [27]: 10.8 µM | GI50 [28]: 4.42 µM | TGI [28]: 9.31 µM | GI50 [29]: 5 µM | TGI [29]: 15.4 µM | GI50 [30]: 1.49 µM | TGI [30]: 7.29 µM | GI50 [31]: 1.91 µM | TGI [31]: 9.96 µM | GI50 [32]: 3.38 µM | TGI [32]: 11.1 µM | GI50 [33]: 1.18 µM | TGI [33]: 2.82 µM | GI50 [34]: 4 µM | TGI [34]: 11.4 µM | GI50 [35]: 1.4 µM | TGI [35]: 8.99 µM | GI50 [36]: 3.05 µM | TGI [36]: 8.89 µM | GI50 [37]: 1.9 µM | TGI [37]: 5.16 µM | GI50 [38]: 2.67 µM | TGI [38]: 6.78 µM | GI50 [39]: 4.71 µM | TGI [39]: 10.9 µM | GI50 [40]: 5.59 µM | TGI [40]: 16.2 µM | GI50 [41]: 3.88 µM | TGI [41]: 10.7 µM | GI50 [42]: 2.54 µM | TGI [42]: 5.7 µM | GI50 [43]: 4.51 µM | TGI [43]: 18.6 µM | GI50 [44]: 3.22 µM | TGI [44]: 6.73 µM | GI50 [45]: 1.91 µM | TGI [45]: 5.45 µM | GI50 [46]: 1.53 µM | TGI [46]: 5.2 µM | GI50 [47]: 1.61 µM | TGI [47]: 5.06 µM | GI50 [48]: 3.83 µM | TGI [48]: 11.2 µM | GI50 [49]: 1.93 µM | TGI [49]: 8.08 µM | GI50 [50]: 2.73 µM | TGI [50]: 11.1 µM | GI50 [51]: 3.32 µM | TGI [51]: 9.72 µM | GI50 [52]: 5 µM | TGI [52]: 12 µM | GI50 [53]: 0.789 µM | TGI [53]: 2.14 µM | GI50 [54]: 4.78 µM | TGI [54]: 12.5 µM | GI50 [55]: 1.81 µM | TGI [55]: 5.59 µM | GI50 [56]: 0.799 µM | TGI [56]: 3 µM | GI50 [57]: 1.3 µM | TGI [57]: 4.48 µM
